Data: US20250099420A1, “SMALL MOLECULE MODULATORS OF GPR139 COMPLEX” (University of Florida Research Foundation, Incorporated, priority 2022, published 2025)

Columns and labels:
GPR139 [1] = target: T1, GPR139 (Homo sapiens, UniProt Q6DWJ6); test: [3H]JNJ-63533054 radioligand competition binding assay on membranes of HEK293T/17 cells; parameters: HA signal peptide (HASP) (N); expressed in transfected cells; host or cells: HEK293T/17 cells (membrane preparation); details: for inhibition at 10 µM: 10 μM of the indicated compound, (10 μM) JNJ-63533054 as printed in title; for Ki: Ki=IC50/(1+C/Kd), membranes of HEK293T/17 cells expressing human GPR139, read-out: Ki ± SEM
T1 sequence (Q6DWJ6 1-353): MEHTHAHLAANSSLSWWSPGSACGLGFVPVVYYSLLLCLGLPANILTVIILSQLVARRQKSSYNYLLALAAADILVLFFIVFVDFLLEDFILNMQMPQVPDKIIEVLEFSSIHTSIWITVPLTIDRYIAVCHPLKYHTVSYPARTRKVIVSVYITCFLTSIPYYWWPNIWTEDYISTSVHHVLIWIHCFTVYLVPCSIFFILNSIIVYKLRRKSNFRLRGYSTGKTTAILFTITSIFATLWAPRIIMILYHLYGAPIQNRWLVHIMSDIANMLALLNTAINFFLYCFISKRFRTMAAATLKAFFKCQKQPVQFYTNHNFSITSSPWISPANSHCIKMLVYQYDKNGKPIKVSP
Source text: Eighteen compounds were selected for additional study. The compounds were re-synthesized and tested in radioligand binding competition assays for their ability to displace [^3H]-labeled reference agonist JNJ-63533054 on GPR139. The GPR139 construct used (pCDNA3.1-HASP-HA-GPR139) contained an N-terminal HA signal peptide (HASP), followed by an HA tag and human GPR139 (NM_001002911.4). HEK293T/17 cells were maintained in Dulbecco's modified Eagle's medium with 10% (v/v) fetal bovine serum, nonessential amino acids, and 1 mM sodium pyruvate.
Competition binding assay: Radioligand binding assay used human GPR139 expressed in HEK293T/17 cells. HEK293T/17 cells were transfected pCDNA3.1-HASP-HA-GPR139. 48 h after, cells were detached from plates by pipetting with PBS, centrifuged at 500×g for 5 min, and then the fluid was aspirated away. The cell pellets were frozen with liquid nitrogen and stored at −80° C. Pellets were homogenized in TE buffer (50 mM Tris-HCl, pH 7.4, 5 mM EDTA) and centrifuged at 1000×g at 4° C. for 5 min. Supernatant was collected and recentrifuged at 30,000×g at 4° C. for 30 min. The pellet was rehomogenized in TE buffer and incubated for 60 minutes at room temperature with eight concentrations of [^3H]JNJ-63533054 (specific activity 24.7 Ci/mmol) ranging from 0.024 nM to 400 nM. The binding reaction was terminated by filtration through GF/C filter (Waterman) followed by washes with cold TE buffer. Filters were dried in a hood overnight followed by the addition of scintillation fluid. Bound radioactivity was counted on a Hidex 600 liquid scintillation counter. […] Nonspecific binding was determined with 10 μM JNJ-63533054. The Kd values of the radioligands and IC50 of the antagonist were calculated by Graphpad Prism. Ki values were calculated as Ki=IC50/(1+C/Kd), where C is concentration of the radioligand.
Various concentrations of selected ligands were then added in the presence of 10 nM [^3H]-JNJ-63533054 and their ability to displace [^3H]labeling on cellular membranes was assessed. FIGS. 3B and 3C present representative data obtained in these experiments. […] The results of these experiments are presented in the Table 3 and confirm selective binding the compounds to GPR139 thereby validating their interaction with the intended target.

parental HEK cells = test: HEK parental Antagonist Counterscreen Assay (non-transfected cells, acetylcholine control); type: cell-based; details: for EC50: Homo sapiens, HEK293, acetylcholine as control, scientific notation, molarity
Source text: C. […] The HEK parental counterscreen utilized the same cells but not transfected with the plasmid. The agonist and antagonist modes were run the same way as the primary screen but acetylcholine was used in place of GPR139 agonist as the control compound.
The HEK parental counterscreen utilized the same cells but not transfected with the plasmid. The antagonist modes assays utilized the cells being plated in the 1536 well plate overnight in growth media prior to dye loading in PDL coated plates and acetylcholine was used in place of GPR139 agonist as the control compound.
The HEK parental counterscreen utilized the same cells but not transfected with the plasmid. Acetylcholine was used in place of GPR139 agonist as the control compound. The cells were plated overnight, similar to the HEK antagonist counterscreen protocol.
The HEK parental counterscreens utilized the same cells but not transfected with the plasmid. Acetylcholine was used in place of GPR139 agonist as the control compound. The cells were plated overnight, similar to the HEK antagonist counterscreen protocol.
For each test compound, percent activation was plotted against compound concentration. A four parameter equation describing a sigmoidal dose-response curve was then fitted with adjustable baseline using Assay Explorer software (Symyx Technologies Inc.).

GPR139 [2] = target: T1, GPR139; test: GPR139 Agonist titration / agonist counterscreen assay (calcium detection, HEK-GPR139 cells); type: cell-based; parameters: expressed in transfected cells; host or cells: HEK Aequorin cells, Maxcyte transient transfection; details: agonist counterscreen of the antagonists; for EC50: scientific notation, molarity, read-out: GRP139 Agonist activity EC50
Experimental: GPR activity was assessed using a calcium detection assay. […] Negative control samples were treated with DMSO. […] Intracellular calcium was measured using Calcium 5.

GPR139 [3] = target: T1, GPR139; test: GPR139 Antagonist titration assay (calcium detection, HEK-GPR139 cells, vs EC80 of S-JNJ-63533054); details: for GPR139 Antagonist Activity Averaged Max % Response (±St. Dev.): activity relative to known control; for GPR139 Antagonist Activity Lipophilic Efficiency (logD): based on logD; for GPR139 Antagonist Activity Lipophilic Efficiency (logP): based on logP; for GPR139 Antagonist Activity Hill Slope: fitted dose-response curve

Row | SMILES | inhibition at 10 µM (GPR139 [1]) [%] | Ki (GPR139 [1]) [µM] | HEK antagonist activity Averaged Max % Response (±St. Dev.) (parental HEK cells) | EC50 (parental HEK cells) [µM] | GRP139 Agonist activity Averaged Max % Response (±St. Dev.) (GPR139 [2]) | EC50 (GPR139 [2]) [µM] | EC50 (GPR139 [3]) [µM] | GPR139 Antagonist Activity Ligand Efficiency (GPR139 [3]) | GPR139 Antagonist Activity Averaged Max % Response (±St. Dev.) (GPR139 [3]) [%] | GPR139 Antagonist Activity Lipophilic Efficiency (logD) (GPR139 [3]) | GPR139 Antagonist Activity Lipophilic Efficiency (logP) (GPR139 [3]) | GPR139 Antagonist Activity Hill Slope (GPR139 [3])
1 | O=C(NCCC1=CCCCC1)N1c2ccccc2Sc2ccccc21 [SR-01000452455-1 analog] | 107 ± 1.95 | 1.68 ± 0.04 |  |  |  |  |  |  |  |  |  | 
2 | Cc1cc(C)c(NC(=O)c2ccc(Br)cc2)c(C)c1NC(=O)c1ccc(Br)cc1 [SR-01000512383] |  |  | 33.99 ± 7.44% | > 8.9 | 6.60 ± 4.93% | > 8.9 | 2.2 | 0.27 | 58.56 ± 7.31 | −1.6E+0 | −1.6E+0 | 1.46
3 | Brc1ccc2[nH]cc(-c3nnc4ccc5ccccc5n34)c2c1 [SR-01000524226] |  |  | −2.2E+0 ± 7.28 ^ % | > 13.3 | −11.2 ± 4.96% | > 13.3 | 10.2 | 0.30 | 60.57 ± 14.37 | 1.28 | 1.28 | 1.32
4 | COc1ccc(C(C(=O)NC(C)c2ccccc2)(c2ccccc2)c2ccccc2)cc1 (centres unmarked) [SR-01000529482] |  |  | 16.45 ± 6.46% | > 10.8 | 3.89 ± 5.42% | > 10.8 | 7.9 | 0.22 | 56.80 ± 4.90 | −1.1E+0 | −1.1E+0 | 0.94
5 | O=C(CSc1nc(-c2ccccc2)cn1-c1ccc(F)cc1)Nc1ccccc1 [SR-01000555413] |  |  | −6.1E+0 ± 7.39 ^ % | > 11.3 | 5.85 ± 3.71% | > 11.3 | 5 | 0.26 | 77.15 ± 0.74 | −521.6E−3 | −521.7E−3 | 1.24
6 | Cc1ccc(-n2cc(-c3ccccc3)nc2OCC(=O)Nc2ccccc2C)cc1 [SR-01000555462] |  |  | 9.21 ± 12.02% | > 11 | 1.48 ± 6.53% | > 11 | 5.2 | 0.25 | 71.75 ± 3.35 | −1.4E+0 | −1.4E+0 | 0.81
7 | Cc1cc(C)cc(-n2cnc3cc(C(=O)NCc4ccccc4Cl)ccc32)c1 [SR-01000579741] |  |  | 13.52 ± 10.95% | > 13 | 21.81 ± 2.59% | > 13 | 3.1 | 0.28 | 81.29 ± 5.44 | −62.7E−3 | −63.1E−3 | 2.25
8 | CCOC(=O)N1CCC(NC(=O)c2cnn3c(O)c(Cc4cccc(C)c4)c(C)nc23)CC1 [SR-01000581959] |  |  | 14.54 ± 9.66% | > 13.4 | −987E−3 ± 9.16 ^ % |  |  | 0.22 | 56.13 ± 9.03 | 2.24 | 2.24 | 1.46
9 | Cc1cccc(-n2ccnc2SCC(=O)Nc2cccc(C)c2C)c1 [SR-01000907209] |  |  | 18.39 ± 12.65% | > 14.1 | 13.37 ± 4.41% | > 14.1 | > 1.6 | 0.33 | 87.64 ± 8.11 | 0.62 | 0.62 | 
10 | O=C(Nc1cccc(-c2nnco2)c1)C1c2ccccc2Oc2ccccc21 [SR-01000907648-1 analog] | 65.5 ± 0.72 | 6.07 ± 0.14 |  |  |  |  |  |  |  |  |  | 
11 | Cc1c(-c2cccc(NC(=O)C3c4ccccc4Oc4ccccc43)c2)nc2ncccn12 [SR-01000907648] |  |  | 55.77 ± 9.26% | 7.6 | 35.82 ± 4.87% | > 14.1 | 1.5 | 0.25 | 88.60 ± 6.25 | 1.51 | 1.51 | 0.23
12 | CC(=O)Nc1ccc(Sc2ccc(S(=O)(=O)Nc3ccc(C)cc3C)cc2[N+](=O)[O-])cc1 [SR-07000003837-2 analog 1] | 88.7 ± 21.1 | 9.45 ± 0.21 |  |  |  |  |  |  |  |  |  | 
13 | CN1CCN(S(=O)(=O)c2ccc(Sc3ccc(Cl)cc3)c([N+](=O)[O-])c2)CC1 [SR-07000003837-2 analog 2] | 51.9 ± 5.47 | 1.29 ± 0.03 |  |  |  |  |  |  |  |  |  | 
